Source: patent EP0089154A2, “Ethanolamine derivatives, their preparation and use in pharmaceutical compositions” (BEECHAM GROUP PLC, priority 1982, dated 1983)
Counter-ions that a name gives are not always drawn. Like-named read-outs stand apart in the source and are kept apart here.

How the values were obtained:
Rat hearts = assay: Cardiac activity: Langendorff perfused rat heart
Procedure: Rat hearts were perfused by the Langendorff procedure. Hearts were dissected free within 30 seconds of death and reverse perfused via the aorta and coronary vessels with Krebs-Ringer bicarbonate solution (pH 7.4, 37°C) gassed with 95% oxygen:5% carbon dioxide at a flow rate between 8-12 cm^3/minute. Responses were observed after injection of drug dissolved in isotonic saline into the perfusion media.
Results are expressed as a percentage of the maximum response due to salbutamol.

Female CFLP mice = assay: Anti-hyperglycaemic activity: subcutaneous glucose load in fasted mice; type: in vivo; conditions: Mus musculus, po, read-out: % REDUCTION IN AREA UNDER BLOOD GLUCOSE CURVE; for inhibition in vivo at 12.5 µmol/kg: dose 12.5 μmol/kg orally
Procedure: Female CFLP mice, weighing approximately 25 g, were fasted for 24 hours prior to the study. The compounds under study were administered orally as an aqueous solution to each of 6 mice. 30 Minutes later a blood sample (10 pl) was obtained from the tail for the analysis of blood glucose. Immediately after taking this blood sample, glucose (1 g/kg body weight) was administered subcutaneously to each mouse. 6 Mice were given water as a control. Blood samples were then obtained from each mouse at 30 minute intervals for 120 minutes.
Compounds that produced a significant (P 0.05) reduction of blood glucose, compared with control mice given water, at any time interval, were considered active. The area under the blood glucose curve over the 2 hour period after the administration of the glucose was calculated for each compound and compared with the value for control animals.

rat ear = assay: Anti-inflammatory activity: croton oil induced rat ear inflammation; type: in vivo; conditions: 1.00 mg/rat ear, topical in 1% croton oil in tetrahydrofuran, ear weight after 6 hours
Procedure: The method used is based on that described by G.Tonelli et al (Endocrinology, 77, 625-634, 1965). An inflammation is induced in the rat ear by the application of 50 pl of a 1% solution of croton oil in tetrahydrofuran, test compounds being dissolved in the irritant vehicle. After 6 hours the inflammation is assessed by killing the animals and weighing the ears. Topical anti-inflammatory activity of a compound is generally considered to be shown when a significant (5% level) reduction in ear weight is seen compared to non- drug treated control.

[1] = 30 µg added to perfusate, perfused rat heart, read-out: HEART RATE
[2] = 30 µg added to perfusate, perfused rat heart, read-out: HEART TENSION
[3] = mice fasted 24 hours, glucose 1 g/kg subcutaneously, 2 hour period, compared with control given water
[4] = dose 1.0 μmol/kg orally, mice fasted 24 hours, glucose 1 g/kg subcutaneously, 2 hour period, compared with control given water
[5] = dose 2.5 μmol/kg orally, mice fasted 24 hours, glucose 1 g/kg subcutaneously, 2 hour period, compared with control given water

CC(Cc1ccc(CS(=O)(=O)C(C)C)cc1)NCC(O)c1cccc(C(F)(F)F)c1 (centres unmarked) [Example 12, N-[2-(4-Isopropylsulphonylmethylphenyl)-1-methylethyl] -2-hydroxy-2-(3-trifluoromethylphenyl)ethanamine]
Emax at 30 µg (Rat hearts; [1]): 13%
Emax at 30 µg (Rat hearts; [2]): 40%

CC(Cc1ccc(SCc2ccccc2)cc1)NCC(O)c1cccc(Cl)c1 (centres unmarked) [Example 4, N-[2-(4-Benzylthiophenyl)-1-methylethyl]-2-hydroxy-2-(3-chlorophenyl)ethanamine]
inhibition in vivo at 12.5 µmol/kg (Female CFLP mice; [3]): 17%

CSc1ccc(C[C@H](C)NC[C@H](O)c2cccc(Cl)c2)cc1 [Example 18]
inhibition in vivo at 5 µmol/kg (Female CFLP mice; 2 h): 16%

CNCCSc1ccc(CC(C)NCC(O)c2cccc(Cl)c2)cc1 (centres unmarked) [Example 23, N-[2-(4-(2-Methylaminoethylthio)phenyl)-1-methlethyl]-2-hydrox-2-(3-chlorophenyl)ethanamine dihydrochloride]
inhibition in vivo at 1 µmol/kg (Female CFLP mice; [4]): 16%

CC(Cc1ccc(S(=O)(=O)C(C)C)cc1)NCC(O)c1cccc(C(F)(F)F)c1 (centres unmarked) [Example 8, N-[2-(4-Isopropylsulphonylphenyl)-1-methylethyl]-2-hydroxy-2-(3-trifluoromethylphenyl)ethanamine]
Emax at 30 µg (Rat hearts; [1]): 29%
Emax at 30 µg (Rat hearts; [2]): 30%

CC(Cc1ccc(S(C)(=O)=O)cc1)NCC(O)c1cccc(C(F)(F)F)c1 (centres unmarked) [Example 7, N-[2-(4-Methylsulphonylphenyl)-1-methylethyl]-2-hydroxy-2-(3-trifluoromethylphenyl)ethanamine]
Emax at 30 µg (Rat hearts; [1]): 25%
Emax at 30 µg (Rat hearts; [2]): 0%
inhibition in vivo at 12.5 µmol/kg (Female CFLP mice; [3]): 48%

CSc1ccc(C[C@@H](C)NC[C@H](O)c2cccc(Cl)c2)cc1 [Example 19, (RR, SS)-N-[2-(4-Methylthiophenyl)-1-methylethyl]-2-luydroxy-1-(3-chlorophenyl) ethanamine hydrochloride]
inhibition in vivo at 2.5 µmol/kg (Female CFLP mice; 2 h): 26%

COC(=O)CCSc1ccc(CC(C)NCC(O)c2cccc(C(F)(F)F)c2)cc1 (centres unmarked) [Example 1, N-[2-(4-(2-Carbomethoxyethylthio)phenyl)-1-methylethyl] 2-hydroxy-2-(3-trifluoromethylphenyl)ethanamine]
Emax at 30 µg (Rat hearts; [1]): 0%
Emax at 30 µg (Rat hearts; [2]): 4%
inhibition in vivo at 12.5 µmol/kg (Female CFLP mice; [3]): 35%
inhibition (rat ear): 89%
Activity (rat ear; active = significant (5% level) reduction in ear weight): Active

CSc1ccc(CC(C)NCC(O)c2cccc(Cl)c2)cc1 (centres unmarked) [Example 2, N-[2-(4-Methylthiophenyl)-1-methylethyl]-2-hydroxy-2-(3-chlorophenyl)ethanamine]
Emax at 30 µg (Rat hearts; Rattus norvegicus, read-out: HEART RATE): 23%
Emax at 30 µg (Rat hearts; Rattus norvegicus, read-out: HEART TENSION): 25%
inhibition in vivo at 1 µmol/kg (Female CFLP mice; 2 h): 8%

COC(=O)CCS(=O)(=O)c1ccc(CC(C)NCC(O)c2cccc(Cl)c2)cc1 (centres unmarked) [Example 10, N-[2-(4-{2-Carbomethoxyethylsulphonyl}phenyl)-1-methylethyl] -2-hydroxy-2-(3-chlorophenyl)ethanamine]
Emax at 30 µg (Rat hearts; [1]): 31%
Emax at 30 µg (Rat hearts; [2]): 91%
inhibition in vivo at 1 µmol/kg (Female CFLP mice; [4]): 10%

CC(Cc1ccc(SC(C)C)cc1)NCC(O)c1ccccc1 (centres unmarked) [Example 17, N-[2-(4-Isopropylthiophenyl)-1-methylethyl]-2-hydroxy-2-phenylethanamine]
inhibition in vivo at 2.5 µmol/kg (Female CFLP mice; 2 h): 30%

CC(Cc1ccc([S+](C)[O-])cc1)NCC(O)c1cccc(Cl)c1 (centres unmarked) [Example 20, N-[2-(4-Methylsulphinylphenyl)-1-methylethyl]-2-hydroxy-2-(3-chlorophenyl) ethanamine]
inhibition in vivo at 12.5 µmol/kg (Female CFLP mice; [3]): 59%

COCCSc1ccc(CC(C)NCC(O)c2cccc(Cl)c2)cc1 (centres unmarked) [Example 21, N-[2-(4-(2-Methoxyethylthio)phenyl)-1-methylethyl]-2-hydroxy-2-(3-chlorophenyl)ethanamine hydrochloride]
inhibition in vivo at 1 µmol/kg (Female CFLP mice; 2 h): 31%

CC(Cc1ccc(S(=O)(=O)C(C)(C)C)cc1)NCC(O)c1cccc(Cl)c1 (centres unmarked) [Example 15, N-(2-(4-t-Butylsulphonylphenyl)-1-methylethyl]-2-hydroxy-2-(3-chlorophenyl)ethanamine hydrobromide]
inhibition in vivo at 100 µmol/kg (Female CFLP mice; 2 h): 48%

CC(Cc1ccc(SCCSc2ccccc2)cc1)NCC(O)c1cccc(Cl)c1 (centres unmarked) [Example 24, N-[2-(4-(2-Phenylthioethylthio)phenyl)-1-methylethyl]-2-hydroxy-2-(3-chlorophenyl)ethanamine]
inhibition in vivo at 2.5 µmol/kg (Female CFLP mice; [5]): 12%

CC(Cc1ccc(S(=O)(=O)CCCO)cc1)NCC(O)c1cccc(C(F)(F)F)c1 (centres unmarked) [Example 9, N-[2-(4-{3-Hyaroxypropylsulphonyl}phenyl)-1-methylethyl] -2-hydroxy-2-(3-trifluoromethylphenyl)-ethanamine]
inhibition in vivo at 12.5 µmol/kg (Female CFLP mice; [3]): 52%

CC(Cc1ccc(SC(C)C)cc1)NCC(O)c1cccc(Cl)c1 (centres unmarked) [Example 3, N-[2-(4-Isopropylthiophenyl)-1-methylethyl]-2-hydroxy-2-(3-chlorophenyl)ethanamine hydrochloride]
inhibition in vivo at 0.5 µmol/kg (Female CFLP mice; 2 h): 28%

CC(Cc1ccc(SCCOc2ccccc2)cc1)NCC(O)c1cccc(Cl)c1 (centres unmarked) [Example 22, N-[2-(4-(2-Phenoxyethylthio)phenyl)-1-methyletlzyl]-2-hydroxy-2-(3-chlorophenyl) ethanamine]
inhibition in vivo at 2.5 µmol/kg (Female CFLP mice; [5]): 23%

CC(Cc1ccc(CS(C)(=O)=O)cc1)NCC(O)c1cccc(C(F)(F)F)c1 (stereo not drawn) [Example 11, N-[2-(4-Methylsulphonylmethylphenyl)-l-methylethyl] -2-hydroxy-2-(3-trifluoromethylphenyl)ethanamine]
Emax at 30 µg (Rat hearts; [1]): 67%
Emax at 30 µg (Rat hearts; [2]): 18%
